Measurements published in US9988430B2, “Stable GLP-1 based GLP-1/glucagon receptor co-agonists” (Novo Nordisk A/S, priority 2014, dated 2018).
*1 amine or outer side, *2 acyl side, *3 side chain or, on linkers, in order; H or OH if unused. Where a SMILES comes first, the peptide text is derived from it. Bridges are numbered along the chain shown (N, C = ends). Roman numbers before positions name the chains, in order. Side-chain parts run from the residue outwards. [ ]: non-standard residue; d: D form. The star is where a group is joined. C18 diacid = O=C(O)CCCCCCCCCCCCCCCCC(=O)*; γGlu = O=C(O)[C@H](CCC(=O)[*:2])N[*:1]; C14 diacid = O=C(O)CCCCCCCCCCCCC(=O)*; Desaminohistidyl = O=C(CCc1c[nH]cn1)*; AEEA = NCCOCCOCC(=O)O; Aib = CC(C)(N)C(=O)O

Experiments:
human glucagon receptor = molecular target: T1, human glucagon receptor (Homo sapiens, UniProt P47871); experiment: Assay (II)(b): glucagon receptor binding, [125I]-glucagon displacement, SPA on BHK membranes; conditions: displacement of [125I]-glucagon, membranes with human glucagon receptor; read-out: IC50 GlucagonR
T1 construct: expressed in transfected cells; host or cells: membranes of BHK cells, clone BHK hGCGR A3*25
T1 sequence (P47871 26-477): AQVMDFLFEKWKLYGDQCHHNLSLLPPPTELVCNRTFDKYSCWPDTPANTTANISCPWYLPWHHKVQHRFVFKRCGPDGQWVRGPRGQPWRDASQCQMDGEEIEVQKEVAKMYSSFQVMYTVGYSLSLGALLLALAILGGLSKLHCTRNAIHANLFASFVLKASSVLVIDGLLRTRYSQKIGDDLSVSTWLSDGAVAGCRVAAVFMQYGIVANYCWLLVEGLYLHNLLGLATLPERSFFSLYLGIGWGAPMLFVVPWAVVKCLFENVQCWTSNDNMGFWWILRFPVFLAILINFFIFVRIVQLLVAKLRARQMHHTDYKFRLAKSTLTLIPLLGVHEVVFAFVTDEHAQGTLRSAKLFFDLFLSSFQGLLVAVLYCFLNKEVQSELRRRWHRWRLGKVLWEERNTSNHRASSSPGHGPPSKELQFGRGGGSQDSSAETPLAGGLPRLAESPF
Method: Assay (II): GLP-1 and Glucagon Receptor Binding The purpose of this assay is to test the in vitro receptor binding activity of the GLP-1 derivatives of the invention. (b) Glucagon Receptor Binding The glucagon receptor (glucagonR) binding activity is a measure of affinity of a derivative for the human glucagon receptor. The glucagon receptor binding of each derivative were determined with competitive binding, displacing [^125I]-glucagon bound to glucagon receptors expressed in cell membranes associated with wheat germ agglutinin (WGA) scintillation proximity assay (SPA) beads. Each derivative was added in a series of concentrations to isolated membranes comprising the human glucagon receptor and displacement of the labelled ligand was monitored. The receptor binding was reported as the concentration at which half of the labelled ligand is displaced from the receptor, the IC^50 value. The following chemicals were used in the assay: DMEM w Glutamax (Gibco 61965-026), Pen/strep (Invitrogen 15140-122), G418 (Invitrogen 10131-027), Versene (Gibco 15040), 1 M Hepes (Gibco 15630), PBS (Invitrogen 14190-094), fetal calf serum (Invitrogen 16140-071), MgCl2 (Merck 1.05832.1000), EDTA (Invitrogen 15575-038), CaCl2 (Sigma, C5080), Tween 20 (Amresco 0850C335), ovalbumin (Sigma A5503), SPA particles (wheat germ agglutinin (WGA) SPA beads, Perkin Elmer RPNQ0001), [125I]-glucagon (produced in-house), OptiPlate™-96 (Packard 6005290). HME buffer consisted of 25 mM HEPES, 2 mM MgCl2 and 1 mM EDTA, and pH was adjusted to 7.4. Assay buffer consisted of 50 mM HEPES supplemented with 5 mM MgCl2, 1 mM CaCl2, 0.02% Tween 20 and 0.1% Ovalbumin, and pH was adjusted to 7.4. The cells used in this assay (clone BHK hGCGR A3*25) were BHK cells stable transfected with an expression plasmid comprising the cDNA encoding the human glucagon receptor. The cells were grown at 5% CO2 in DMEM, 10% fetal calf serum, 1% Pen/Strep (Penicillin/Streptomycin) and 1.0 mg/ml of the selection marker G418. To make a membrane preparation the cells were grown to approximately 80% confluence. The cells were washed twice in phosphate-buffered saline and harvested. The cells were pelleted using a brief centrifugation and the cell pellet was kept on ice. Lyse the cells by adding approx. 5 ml HME buffer, mix by pipetting and snap freeze in liquid nitrogen. Thaw quickly and add HME buffer to 10 ml. The cell pellet was homogenised with an ULTRA-THURRAX dispersing instrument for 20-30 seconds. The homogenate was centrifuged at 20.000×G, 4° C. for 10 minutes. The pellet was resuspended (homogenised) in 1-2 ml HME buffer. The protein concentration was determined. The membranes were aliquoted and snapfrozen in liquid nitrogen and stored at minus 80° C. • 1. For the receptor binding assay 50 μl of the assay buffer was added to each well of an assay plate. • 2. Test compounds were serially diluted to give the following concentrations: 8×10EE-7 M, 8×10EE-8 M, 8×10EE-9 M, 8×10EE-10 M, 8×10EE-11 M, 8×10EE-12 M and 8×10EE-13 M. Twenty-five μl were added to appropriate wells in the assay plate. • 3. Cell membrane aliquots were thawed and diluted to their working concentration. Fifty μl were added to each well in the assay plate. • 4. WGA SPA beads were suspended in assay buffer at 20 mg/ml. The suspension was diluted to 10 mg/ml in assay buffer just prior to addition to the assay plate. Fifty μl were added to each well in the assay plate. • 5. The incubation was started by adding 25 μl of 480 pM solution of [125I]-glucagon to each well of the assay plate. A 25 μl aliquot was reserved for measuring total counts/well. • 6. The assay plate was incubated for 2 h at 25° C. • 7. The assay plate was centrifuged for 10 min at 1500 rpm. • 8. The assay plate was read in a Perkin Elmer TopCount NXT instrument. Calculations The data from the TopCount instrument were transferred to GraphPad Prism software. The software averaged the values for the replicates and performed a non-linear regression. […]

human GLP-1 receptor = molecular target: T2, human GLP-1 receptor (Homo sapiens, UniProt P43220); experiment: Assay (I)(a): GLP-1 receptor potency, CRE luciferase reporter gene assay in BHK cells; type: cell-based; conditions: BHK cells expressing human GLP-1 receptor, read-out: EC50 GLP-1R
T2 construct: expressed in transfected cells; host or cells: membranes of BHK cells, parent line BHKTS13, clone FCW467-12A
T2 sequence (P43220 24-463): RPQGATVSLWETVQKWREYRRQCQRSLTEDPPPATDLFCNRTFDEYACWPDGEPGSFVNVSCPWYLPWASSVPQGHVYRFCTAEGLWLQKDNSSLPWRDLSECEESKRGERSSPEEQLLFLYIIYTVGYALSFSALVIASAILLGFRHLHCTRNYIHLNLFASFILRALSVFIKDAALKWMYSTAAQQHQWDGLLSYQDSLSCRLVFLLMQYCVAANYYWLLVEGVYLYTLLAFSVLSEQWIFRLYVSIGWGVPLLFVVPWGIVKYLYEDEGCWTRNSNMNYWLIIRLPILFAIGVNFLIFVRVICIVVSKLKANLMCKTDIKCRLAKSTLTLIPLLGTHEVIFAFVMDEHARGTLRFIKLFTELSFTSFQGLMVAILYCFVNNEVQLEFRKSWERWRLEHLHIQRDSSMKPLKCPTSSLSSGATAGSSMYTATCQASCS
Outline: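 BHK cells (clone FCW467-12A/KZ10-1), 5×10EE3/well, exposed 3 h at 37° C to compound at 1×10EE-13 to 1×10EE-6 M final in medium with 2% ovalbumin and 0.2% Pluronic F-68. Luciferase luminescence read; EC50 (pM) from four-parameter fit.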

SMILES | IC50 (human glucagon receptor) [nM] | EC50 (human GLP-1 receptor) [nM]
CC[C@H](C)[C@H](NC(=O)[C@H](Cc1ccccc1)NC(=O)[C@H](CCC(=O)O)NC(=O)[C@H](CCCNC(=N)N)NC(=O)[C@H](C)NC(=O)[C@H](C)NC(=O)[C@H](CCC(N)=O)NC(=O)[C@H](CCC(=O)O)NC(=O)[C@H](CCC(=O)O)NC(=O)[C@H](CC(C)C)NC(=O)[C@H](Cc1ccc(O)cc1)NC(=O)[C@H](CCCCN)NC(=O)[C@H](CO)NC(=O)[C@@H](NC(=O)[C@H](CC(=O)O)NC(=O)[C@H](CO)NC(=O)[C@@H](NC(=O)[C@H](Cc1ccccc1)NC(=O)[C@@H](NC(=O)CNC(=O)[C@H](Cc1c[nH]cn1)NC(=O)C(C)(C)NC(=O)CCc1c[nH]cn1)[C@@H](C)O)[C@@H](C)O)C(C)C)C(=O)N[C@@H](C)C(=O)N[C@@H](Cc1c[nH]c2ccccc12)C(=O)N[C@@H](CC(C)C)C(=O)N[C@@H](CC(C)C)C(=O)N[C@@H](CCCCNC(=O)CNC(=O)[C@H](CO)NC(=O)[C@H](CCC(=O)O)NC(=O)CNC(=O)[C@H](CO)NC(=O)CC[C@H](NC(=O)CC[C@H](NC(=O)CCCCCCCCCCCCCCCCC(=O)O)C(=O)O)C(=O)O)C(=O)N[C@H](C(=O)O)[C@@H](C)O [Example 25, N^ε34-[2-[[(2S)-2-[[(2S)-4-carboxy-2-[[2-[[(2S)-2-[[(4S)-4-carboxy-4-[[(4S)-4-carboxy-4-(17-carboxyheptadecanoylamino)butanoyl]amino]butanoyl]amino]-3-hydroxypropanoyl]amino]acetyl]amino]butanoyl]amino]-3-hydroxypropanoyl]amino]acetyl]-[Imp7,Aib8,His9,Lys18,Glu22,Arg26,Leu33,Thr35]-GLP-1-(7-35)-peptide] (I: Desaminohistidyl-[Aib]HGTFTSDVSKYLEEQAAREFIAWLLKT-OH / II: {C18 diacid-γGlu-γGlu}-SGESG; amide I:27-II:C) | 18.8 | –
CC[C@H](C)[C@H](NC(=O)[C@H](Cc1ccccc1)NC(=O)[C@H](CCC(=O)O)NC(=O)[C@H](CCCNC(=N)N)NC(=O)[C@H](C)NC(=O)[C@H](C)NC(=O)[C@H](CCC(N)=O)NC(=O)[C@H](CCC(=O)O)NC(=O)[C@H](CCC(=O)O)NC(=O)[C@H](CC(C)C)NC(=O)[C@H](Cc1ccc(O)cc1)NC(=O)[C@H](CCCCN)NC(=O)[C@H](CO)NC(=O)[C@@H](NC(=O)[C@H](CC(=O)O)NC(=O)[C@H](CO)NC(=O)[C@@H](NC(=O)[C@H](Cc1ccccc1)NC(=O)[C@@H](NC(=O)CNC(=O)[C@H](Cc1c[nH]cn1)NC(=O)C(C)(C)NC(=O)CCc1c[nH]cn1)[C@@H](C)O)[C@@H](C)O)C(C)C)C(=O)N[C@@H](C)C(=O)N[C@@H](Cc1c[nH]c2ccccc12)C(=O)N[C@@H](CC(C)C)C(=O)N[C@@H](CC(C)C)C(=O)N[C@@H](CCCCNC(=O)COCCOCCNC(=O)COCCOCCNC(=O)CC[C@H](NC(=O)CC[C@H](NC(=O)CCCCCCCCCCCCC(=O)O)C(=O)O)C(=O)O)C(=O)N[C@H](C(N)=O)[C@@H](C)O [Example 38, N^ε34-[2-[2-[2-[[2-[2-[2-[[(4S)-4-carboxy-4-[[(4S)-4-carboxy-4-(13-carboxytridecanoylamino)butanoyl]amino]butanoyl]amino]ethoxy]ethoxy]acetyl]amino]ethoxy]ethoxy]acetyl]-[Imp7,Aib8,His9,Lys18,Glu22,Arg26,Leu33,Thr35]-GLP-1-(7-35)-peptide amide] (Desaminohistidyl-[Aib]HGTFTSDVSKYLEEQAAREFIAWLLK([AEEA-AEEA-γGlu-γGlu-C14 diacid])T-NH2) | 3.7 | 0.012
